Assay results from the NIST ThermoML archive (doi:10.1021/je1003065).

Assay: mn = molality of the nth substance listed, in mol/kg
Details: Liquid, Vibrating tube method

[Br-].[Li+] [lithium bromide] + CCO
Details | mass density [kg/m3]
298.15 K, 60024 kPa, m1 = 0.9499 | 885.07
298.15 K, 69784 kPa, m1 = 0.2335 | 847.83
298.15 K, 69784 kPa, m1 = 0.9499 | 890.31
298.15 K, 69931 kPa, m1 = 0.5972 | 869.87
298.15 K, 69993 kPa, m1 = 1.462 | 920.05
298.15 K, 79215 kPa, m1 = 0.9499 | 895.14
298.15 K, 79970 kPa, m1 = 2.272 | 969.11
298.15 K, 80014 kPa, m1 = 2.833 | 998.77
298.15 K, 80151 kPa, m1 = 0.5972 | 875.11
298.15 K, 89921 kPa, m1 = 0.2335 | 857.88
298.15 K, 89926 kPa, m1 = 0.9499 | 900.43
298.15 K, 89927 kPa, m1 = 2.833 | 1003.47
298.15 K, 89963 kPa, m1 = 0.5972 | 879.79
298.15 K, 99468 kPa, m1 = 0.2335 | 862.11
298.15 K, 99739 kPa, m1 = 1.462 | 933.99
298.15 K, 99874 kPa, m1 = 0.5972 | 884.17
298.15 K, 99968 kPa, m1 = 2.833 | 1008.08
298.15 K, 99975 kPa, m1 = 0.9499 | 905.24
298.16 K, 1341 kPa, m1 = 1.462 | 876.32
298.16 K, 9986 kPa, m1 = 2.833 | 958.39
298.16 K, 20192 kPa, m1 = 0.5972 | 838.95
298.16 K, 39784 kPa, m1 = 0.2335 | 830.01
298.16 K, 49924 kPa, m1 = 2.833 | 983.25
298.16 K, 89994 kPa, m1 = 1.462 | 929.76
298.17 K, 9947 kPa, m1 = 1.462 | 882.69
298.17 K, 59942 kPa, m1 = 0.2335 | 842.36
298.17 K, 69994 kPa, m1 = 3.368 | 1020.58
298.17 K, 80053 kPa, m1 = 1.462 | 925.1
298.18 K, 2703 kPa, m1 = 3.368 | 980.82
298.18 K, 5041 kPa, m1 = 3.368 | 982.47
298.18 K, 5165 kPa, m1 = 2.272 | 925.09
298.18 K, 9642 kPa, m1 = 2.272 | 928.25
298.18 K, 9735 kPa, m1 = 3.368 | 985.72
298.18 K, 9947 kPa, m1 = 0.5972 | 831.46
298.18 K, 19511 kPa, m1 = 3.368 | 992.17
298.18 K, 29936 kPa, m1 = 3.368 | 998.66
298.18 K, 40157 kPa, m1 = 3.368 | 1004.65
298.18 K, 49943 kPa, m1 = 3.368 | 1010.11
298.19 K, 2166 kPa, m1 = 2.272 | 922.88
298.19 K, 20358 kPa, m1 = 1.462 | 890.05
298.2 K, 20184 kPa, m1 = 2.272 | 935.31
298.2 K, 59916 kPa, m1 = 3.368 | 1015.42
313.09 K, 4759 kPa, m1 = 0.5972 | 815.39
313.11 K, 1319 kPa, m1 = 2.272 | 910.08
313.11 K, 2109 kPa, m1 = 1.462 | 864.85
313.11 K, 4863 kPa, m1 = 2.272 | 912.94
313.11 K, 9792 kPa, m1 = 0.5972 | 819.49
313.13 K, 5147 kPa, m1 = 1.462 | 867.25
313.13 K, 19554 kPa, m1 = 0.5972 | 827.15
313.14 K, 5102 kPa, m1 = 2.833 | 943.28
313.14 K, 9982 kPa, m1 = 2.272 | 916.81
313.14 K, 19956 kPa, m1 = 0.2335 | 804.92
313.14 K, 20135 kPa, m1 = 2.272 | 924.35
313.14 K, 29993 kPa, m1 = 2.272 | 931.18
313.14 K, 40450 kPa, m1 = 2.272 | 937.95
313.14 K, 50014 kPa, m1 = 0.2335 | 826.45
313.14 K, 59926 kPa, m1 = 2.833 | 978.99
313.15 K, 1021 kPa, m1 = 2.833 | 940.06
313.15 K, 1045 kPa, m1 = 0.9499 | 833.87
313.15 K, 2012 kPa, m1 = 0.2335 | 789.9
313.15 K, 5003 kPa, m1 = 0.9499 | 837.08
313.15 K, 5028 kPa, m1 = 0.2335 | 792.77
313.15 K, 9909 kPa, m1 = 1.462 | 870.96
313.15 K, 9978 kPa, m1 = 2.833 | 947
313.15 K, 9985 kPa, m1 = 0.9499 | 841.04
313.15 K, 19924 kPa, m1 = 0.9499 | 848.66
313.15 K, 19994 kPa, m1 = 1.462 | 878.53
313.15 K, 29451 kPa, m1 = 2.833 | 960.7
313.15 K, 29924 kPa, m1 = 0.2335 | 812.49
313.15 K, 29935 kPa, m1 = 0.9499 | 855.96
313.15 K, 29958 kPa, m1 = 0.5972 | 834.89
313.15 K, 29979 kPa, m1 = 1.462 | 885.66
313.15 K, 39844 kPa, m1 = 0.5972 | 841.83
313.15 K, 40021 kPa, m1 = 0.9499 | 862.92
313.15 K, 49925 kPa, m1 = 1.462 | 898.82
313.15 K, 49925 kPa, m1 = 2.272 | 943.67
313.15 K, 49963 kPa, m1 = 0.5972 | 848.54
313.15 K, 49968 kPa, m1 = 2.833 | 973.38
313.15 K, 50035 kPa, m1 = 0.9499 | 869.45
313.15 K, 59623 kPa, m1 = 1.462 | 904.69
313.15 K, 59831 kPa, m1 = 0.5972 | 854.67
313.15 K, 60002 kPa, m1 = 0.2335 | 832.74
313.15 K, 60047 kPa, m1 = 0.9499 | 875.6
313.15 K, 69784 kPa, m1 = 0.9499 | 881.21
313.15 K, 69784 kPa, m1 = 2.833 | 984.26
313.15 K, 69928 kPa, m1 = 1.462 | 910.56
313.15 K, 69997 kPa, m1 = 0.5972 | 860.59
313.15 K, 79828 kPa, m1 = 0.5972 | 865.9
313.15 K, 79877 kPa, m1 = 1.462 | 915.87
313.15 K, 79935 kPa, m1 = 0.9499 | 886.68
313.15 K, 80042 kPa, m1 = 0.2335 | 844.05
313.15 K, 89924 kPa, m1 = 0.2335 | 848.99
313.15 K, 89925 kPa, m1 = 2.833 | 994.32
313.15 K, 89926 kPa, m1 = 1.462 | 920.86
313.15 K, 89986 kPa, m1 = 0.9499 | 891.71
313.15 K, 89993 kPa, m1 = 0.5972 | 870.99
313.15 K, 99841 kPa, m1 = 0.5972 | 875.52
313.15 K, 99954 kPa, m1 = 0.9499 | 896.31
313.15 K, 99985 kPa, m1 = 0.2335 | 853.58
313.15 K, 99985 kPa, m1 = 2.833 | 999.09
313.16 K, 10023 kPa, m1 = 0.2335 | 796.94
313.16 K, 19926 kPa, m1 = 2.833 | 954.23
313.16 K, 39715 kPa, m1 = 1.462 | 892.26
313.16 K, 40032 kPa, m1 = 0.2335 | 819.73
313.16 K, 59995 kPa, m1 = 2.272 | 949.4
